# Reference: patent US8729078B2, “Inhibitors of bruton's tyrosine kinase” (Hoffmann-La Roche Inc., priority 2011, dated 2014)
# Assays:
# [1] = target: Btk (Homo sapiens (Human), UniProt Q06187); assay: Bruton's Tyrosine Kinase (Btk) inhibition assay (FRET BTK); type: biochemical
# [2] = test system: B cells in human whole blood (CD69 expression); assay: Inhibition of B cell activation in whole blood measured by CD69 expression; type: cell-based; conditions: anti-IgM stimulation, CD69-positive CD20-positive cells
# Procedure: Inhibition of B Cell Activation in Whole Blood Measured by CD69 Expression
# A procedure to test the ability of Btk inhibitors to suppress B cell receptor-mediated activation of B cells in human blood is as follows:
# Human whole blood (HWB) is obtained from healthy volunteers, with the following restrictions: 24 hr drug-free, non-smokers. Blood is collected by venipuncture into Vacutainer tubes anticoagulated with sodium heparin. Test compounds are diluted to ten times the desired starting drug concentration in PBS (20×), followed by three-fold serial dilutions in 10% DMSO in PBS to produce a nine point dose-response curve. 5.5 μl of each compound dilution is added in duplicate to a 2 ml 96-well V bottom plate (Analytical Sales and Services, #59623-23); 5.5 μl of 10% DMSO in PBS is added to control and no-stimulus wells. HWB (100 μl) is added to each well, and after mixing the plates are incubated at 37 C, 5% CO2, 100% humidity for 30 minutes. Goat F(ab′)2 anti-human IgM (Southern Biotech, #2022-14) (10 μl of a 500 μg/ml solution, 50 μg/ml final concentration) is added to each well (except the no-stimulus wells) with mixing and the plates are incubated for an additional 20 hours.
# At the end of the 20 hour incubation, samples are incubated with florescent-probe-labeled anti-bodies (15 μl PE Mouse anti-Human CD20, BD Pharmingen, #555623, and/or 20 ul APC Mouse anti-Human CD69, BD Pharmingen #555533) for 30 minutes, at 37 C, 5% CO2, 100% humidity. Included are induced control, unstained and single stains for compensation adjustments and initial voltage settings. Samples are then lysed with 1 ml of 1× Pharmingen Lyse Buffer (BD Pharmingen #555899), and plates are centrifuged at 1800 rpm for 5 minutes. Supernatants are removed via suction and the remaining pellets are lysed again with another 1 ml of 1× Pharmingen Lyse Buffer, and plates are spun down as before. Supernatants are aspirated and remaining pellets are washed in FACs buffer (PBS+1% FBS). After a final spin, the supernantants are removed and pellets are resuspended in 180 μl of FACs buffer. Samples are transferred to a 96 well plate suitable to be run on the HTS 96 well system on the BD LSR II flow cytometer.
# Using appropriate excitation and emission wavelengths for the fluorophores used, data are acquired and percent positive cell values are obtained using Cell Quest Software. Results are initially analyzed by FACS analysis software (Flow Jo). […] The IC50 values are calculated using XLfit software version 3, equation 201.
# Chain of Btk (Q06187 whole entry): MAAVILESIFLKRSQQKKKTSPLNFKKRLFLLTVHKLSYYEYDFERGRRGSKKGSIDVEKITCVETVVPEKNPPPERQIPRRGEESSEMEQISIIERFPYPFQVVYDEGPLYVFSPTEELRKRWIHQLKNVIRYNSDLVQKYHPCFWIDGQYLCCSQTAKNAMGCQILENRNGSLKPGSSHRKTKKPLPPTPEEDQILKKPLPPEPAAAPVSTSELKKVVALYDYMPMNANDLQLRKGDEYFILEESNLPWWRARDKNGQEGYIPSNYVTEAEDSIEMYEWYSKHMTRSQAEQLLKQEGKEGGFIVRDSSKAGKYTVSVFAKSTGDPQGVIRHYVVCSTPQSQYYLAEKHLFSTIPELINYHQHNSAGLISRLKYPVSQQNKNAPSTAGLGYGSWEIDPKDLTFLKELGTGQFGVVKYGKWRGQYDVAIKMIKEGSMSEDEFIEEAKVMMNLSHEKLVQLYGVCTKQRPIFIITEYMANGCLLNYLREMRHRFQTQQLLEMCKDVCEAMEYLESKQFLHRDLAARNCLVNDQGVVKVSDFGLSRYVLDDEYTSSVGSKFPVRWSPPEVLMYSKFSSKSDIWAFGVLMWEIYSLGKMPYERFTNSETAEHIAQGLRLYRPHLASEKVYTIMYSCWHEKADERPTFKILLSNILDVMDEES
SMILES,IC50 [1] [nM],IC50 [2] [nM]
"CC(C)(C)c1ccc2c(=O)n(-c3cccc(-c4c[nH]c(C(N)=O)c4)c3CO)ncc2c1 [Compound I-3, 4-[3-(6-tert-Butyl-1-oxo-1H-phthalazin-2-yl)-2-hydroxymethyl-phenyl]-1H-pyrrole-2-carboxylic acid amide]",27,> 5000
"Cn1cc(-c2cccc(-n3ncc4cc(C(C)(C)C)ccc4c3=O)c2CO)cc1C(N)=O [Compound I-4, 4-[3-(6-tert-Butyl-1-oxo-1H-phthalazin-2-yl)-2-hydroxymethyl-phenyl]-1-methyl-1H-pyrrole-2-carboxylic acid amide]",11.6,3600
"Cn1c(C(N)=O)ccc1-c1cccc(-n2ncc3cc(C(C)(C)C)ccc3c2=O)c1CO [Compound I-5, 5-[3-(6-tert-Butyl-1-oxo-1H-phthalazin-2-yl)-2-hydroxymethyl-phenyl]-1-methyl-1H-pyrrole-2-carboxylic acid amide]",,4370
"Cc1nc(-c2cccc(-n3ncc4cc(C(C)(C)C)ccc4c3=O)c2CO)oc1C(N)=O [Compound I-6, 2-[3-(6-tert-Butyl-1-oxo-1H-phthalazin-2-yl)-2-hydroxymethyl-phenyl]-4-methyl-oxazole-5-carboxylic acid amide]",1260,> 5000
"CC(C)(C)c1cc(F)c2c(=O)n(-c3cccc(-c4nc(C(N)=O)cs4)c3CO)ncc2c1 [Compound I-7, 2-[3-(6-tert-Butyl-8-fluoro-1-oxo-1H-phthalazin-2-yl)-2-hydroxymethyl-phenyl]-thiazole-4-carboxylic acid amide]",130,> 5000
"Cn1cc(-c2cccc(-n3ncc4cc(C(C)(C)C)cc(F)c4c3=O)c2CO)nc1C(N)=O [Compound I-8, 4-[3-(6-tert-Butyl-8-fluoro-1-oxo-1H-phthalazin-2-yl)-2-hydroxymethyl-phenyl]-1-methyl-1H-imidazole-2-carboxylic acid amide]",18.2,1910
"Cn1cc(-c2cccc(-n3ncc4cc(C(C)(C)C)cc(F)c4c3=O)c2CO)cc1C(N)=O [Compound I-9, 4-[3-(6-tert-Butyl-8-fluoro-1-oxo-1H-phthalazin-2-yl)-2-hydroxymethyl-phenyl]-1-methyl-1H-pyrrole-2-carboxylic acid amide]",2.51,1260
"CC(C)(C)c1cc(F)c2c(=O)n(-c3cccc(-c4ccc(C(N)=O)o4)c3CO)ncc2c1 [Compound I-10, 5-[3-(6-tert-Butyl-8-fluoro-1-oxo-1H-phthalazin-2-yl)-2-hydroxymethyl-phenyl]-furan-2-carboxylic acid amide]",832,> 5000
"CC(C)(C)c1cc(F)c2c(=O)n(-c3cccc(-c4coc(C(N)=O)c4)c3CO)ncc2c1 [Compound I-11, 4-[3-(6-tert-Butyl-8-fluoro-1-oxo-1H-phthalazin-2-yl)-2-hydroxymethyl-phenyl]-furan-2-carboxylic acid amide]",51.4,> 500
"Cn1cc(-c2cccc(-n3ncc4cc(C(C)(C)C)cc(CO)c4c3=O)c2CO)cc1C(N)=O [Compound I-12, 4-[3-(6-tert-Butyl-8-hydroxymethyl-1-oxo-1H-phthalazin-2-yl)-2-hydroxymethyl-phenyl]-1-methyl-1H-pyrrole-2-carboxylic acid amide]",696,> 500
"CN1Cc2cc(C(C)(C)C)ccc2C(=O)N1c1cccc(-c2cc(C(N)=O)n(C)c2)c1CO [Compound I-14, 4-[3-(6-tert-Butyl-3-methyl-1-oxo-3,4-dihydro-1H-phthalazin-2-yl)-2-hydroxymethyl-phenyl]-1-methyl-1H-pyrrole-2-carboxylic acid amide]",26.7,4740
"CC(C)(C)c1cc(F)c2c(=O)n(-c3cccc(-n4cc(C(N)=O)c5ccccc54)c3CO)ncc2c1 [Compound I-17, 1-[3-(6-tert-Butyl-8-fluoro-1-oxo-1H-phthalazin-2-yl)-2-hydroxymethyl-phenyl]-1H-indole-3-carboxylic acid amide]",,2660
"CC(C)(C)c1ccc2c(=O)n(-c3cccc(-n4cc(C(N)=O)c5ccccc54)c3CO)ncc2c1 [Compound I-18, 1-[3-(6-tert-Butyl-1-oxo-1H-phthalazin-2-yl)-2-hydroxymethyl-phenyl]-1H-indole-3-carboxylic acid amide]",,10700
"CC(C)(C)c1ccc2c(=O)n(-c3cccc(-n4cc(C(N)=O)c(Nc5ccc(C(=O)N6CCOCC6)cc5)n4)c3CO)ncc2c1 [Compound I-19, 1-[3-(6-tert-Butyl-1-oxo-1H-phthalazin-2-yl)-2-hydroxymethyl-phenyl]-3-[4-(morpholine-4-carbonyl)-phenylamino]-1H-pyrazole-4-carboxylic acid amide]",,48
"CC(C)(C)c1cc(F)c2c(=O)n(-c3cccc(-n4cc(C(N)=O)c(Nc5ccc(C(=O)N6CCOCC6)cc5)n4)c3CO)ncc2c1 [Compound I-20, 1-[3-(6-tert-Butyl-8-fluoro-1-oxo-1H-phthalazin-2-yl)-2-hydroxymethyl-phenyl]-3-[4-(morpholine-4-carbonyl)-phenylamino]-1H-pyrazole-4-carboxylic acid amide]",,10
"CC(C)(C)c1cc(F)c2c(=O)n(-c3cccc(-n4cc(C(N)=O)c(Nc5ccc(C(=O)N6CCOCC6)cc5)n4)c3)ncc2c1 [Compound I-21, 1-[3-(6-tert-Butyl-8-fluoro-1-oxo-1H-phthalazin-2-yl)-phenyl]-3-[4-(morpholine-4-carbonyl)-phenylamino]-1H-pyrazole-4-carboxylic acid amide]",,260
"CN(C)CCNc1ccc2c(C(N)=O)cn(-c3cccc(-n4ncc5cc(C(C)(C)C)cc(F)c5c4=O)c3CO)c2n1 [Compound I-51, 1-[3-(6-tert-Butyl-8-fluoro-1-oxo-1H-phthalazin-2-yl)-2-hydroxymethyl-phenyl]-6-(2-dimethylamino-ethylamino)-1H-pyrrolo[2,3-b]pyridine-3-carboxylic acid amide]",3560,
"CN(C)Cc1ccc2c(C(N)=O)cn(-c3cccc(-n4ncc5cc(C(C)(C)C)cc(F)c5c4=O)c3CO)c2n1 [Compound I-52, 1-[3-(6-tert-Butyl-8-fluoro-1-oxo-1H-phthalazin-2-yl)-2-hydroxymethyl-phenyl]-6-dimethylaminomethyl-1H-pyrrolo[2,3-b]pyridine-3-carboxylic acid amide]",,1070
"CC(=O)c1ccc(Nc2nn(-c3cccc(-n4ncc5cc(C(C)(C)C)ccc5c4=O)c3CO)cc2C(N)=O)cc1 [Compound I-53, 3-(4-Acetyl-phenylamino)-1-[3-(6-tert-butyl-1-oxo-1H-phthalazin-2-yl)-2-hydroxymethyl-phenyl]-1H-pyrazole-4-carboxylic acid amide]",0.12,
"CC(C)(C)c1ccc2c(=O)n(-c3cccc(-n4cc(C(N)=O)c(Nc5ccccn5)n4)c3CO)ncc2c1 [Compound I-54, 1-[3-(6-tert-Butyl-1-oxo-1H-phthalazin-2-yl)-2-hydroxymethyl-phenyl]-3-(pyridin-2-ylamino)-1H-pyrazole-4-carboxylic acid amide]",0.95,
"CN(C)Cc1ccc(Nc2nn(-c3cccc(-n4ncc5cc(C(C)(C)C)ccc5c4=O)c3CO)cc2C(N)=O)nc1 [Compound I-55, 1-[3-(6-tert-Butyl-1-oxo-1H-phthalazin-2-yl)-2-hydroxymethyl-phenyl]-3-(5-dimethylaminomethyl-pyridin-2-ylamino)-1H-pyrazole-4-carboxylic acid amide]",0.39,
"CC(C)(C)c1cc(F)c2c(=O)n(-c3cccc(-n4cc(C(N)=O)cn4)c3)ncc2c1 [Compound I-56, 1-[3-(6-tert-Butyl-8-fluoro-1-oxo-1H-phthalazin-2-yl)-phenyl]-1H-pyrazole-4-carboxylic acid amide]",3700,
